{"source": "BindingDB's records for doi:10.1021/acs.jmedchem.3c01236", "about": "(University of Toronto Mississauga, 2023)", "biological_target": "Histone deacetylase 1 (Homo sapiens, UniProt Q13547)", "sequence (Q13547 whole entry)": "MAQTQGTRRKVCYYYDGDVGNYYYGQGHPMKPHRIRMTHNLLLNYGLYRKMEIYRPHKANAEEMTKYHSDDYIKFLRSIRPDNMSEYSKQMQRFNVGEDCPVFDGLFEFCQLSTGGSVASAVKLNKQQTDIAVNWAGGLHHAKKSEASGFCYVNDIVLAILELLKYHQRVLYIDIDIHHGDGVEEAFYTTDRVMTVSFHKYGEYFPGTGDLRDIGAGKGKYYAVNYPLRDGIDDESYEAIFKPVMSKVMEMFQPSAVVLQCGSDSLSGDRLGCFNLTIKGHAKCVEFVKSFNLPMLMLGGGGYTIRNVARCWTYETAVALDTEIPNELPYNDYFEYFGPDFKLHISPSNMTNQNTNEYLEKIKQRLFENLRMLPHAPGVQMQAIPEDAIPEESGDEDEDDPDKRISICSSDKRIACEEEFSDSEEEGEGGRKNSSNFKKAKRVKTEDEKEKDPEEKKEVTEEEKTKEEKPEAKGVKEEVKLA", "assay": "Inhibition of HDAC1 (unknown origin) using 6-carboxyfluorescein peptide as substrate preincubated with compound followed by substrate addition by electrophoretic mobility shift assay", "note": "pIC50: −log10 of the molar value.", "data": [{"smiles": "C=CC(=O)N1CCC(OC(=O)NCc2ccc(C(=O)Nc3ccccc3N)cc2)CC1", "values": [{"measurement": "pIC50", "result": 6.16}]}]}
